Results published in the supplement of paper PMC10307832.

Experiments:
Assay in all cases: relative viability (nuclei count vs DMSO), 5 days (fraction); higher = more cells survive
[1] = compound: CC1=CC(=CC=C1)NC2=NC(=CS2)C3=CC=NC=C3 + CC1(C)CCC(c2ccc(Cl)cc2)=C(CN2CCN(c3ccc(C(=O)NS(=O)(=O)c4ccc(N[C@H](CCN5CCOCC5)CSc5ccccc5)c(S(=O)(=O)C(F)(F)F)c4)cc3)CC2)C1 [Navitoclax] (partner 0.5 µM)
Outline: (§1)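 The day after seeding in 1536-well plates, lung cancer cell lines were treated by pin tool with a single drug, or with a fixed anchor-drug dose together with five library-drug doses (not always all listed) in √10 steps. After 5 days, a combined fix-and-stain solution (final 0.05% Triton X-100, 1% formaldehyde, 1 ug/ml Hoechst) was added. Nuclei counted on 4× images gave relative viability as treated counts over vehicle counts, reported as the median of duplicate plates.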

[2] = compound: CC1=CC(=CC=C1)NC2=NC(=CS2)C3=CC=NC=C3 + C[C@]1(O)C[C@@H](c2nc(-c3ccc4ccc(-c5ccccc5)nc4c3)c3c(N)nccn32)C1 [Linsitinib] (partner 1 µM)
Outline: as §1

[3] = compound: CC1=CC(=CC=C1)NC2=NC(=CS2)C3=CC=NC=C3 + CC(=O)Nc1cccc(-n2c(=O)n(C3CC3)c(=O)c3c(Nc4ccc(I)cc4F)n(C)c(=O)c(C)c32)c1 [Trametinib] (partner 0.02 µM)
Outline: as §1

[4] = compound: CC1=CC(=CC=C1)NC2=NC(=CS2)C3=CC=NC=C3 + CC(=O)c1c(C)c2cnc(Nc3ccc(N4CCNCC4)cn3)nc2n(C2CCCC2)c1=O [Palbociclib] (partner 0.5 µM)
Outline: as §1

## EBC-1
[1]; first compound 0.08 µM
  relative viability: 0.376
[1]; first compound 0.253 µM
  relative viability: 0.381
[1]; first compound 0.8 µM
  relative viability: 0.516
[1]; first compound 2.53 µM
  relative viability: 0.391
[1]; first compound 8 µM
  relative viability: 0.227
[2]; first compound 0.08 µM
  relative viability: 0.621
[2]; first compound 0.253 µM
  relative viability: 0.698
[2]; first compound 0.8 µM
  relative viability: 0.757
[2]; first compound 2.53 µM
  relative viability: 0.686
[2]; first compound 8 µM
  relative viability: 0.786

## EKVX
[3]; first compound 0.08 µM
  relative viability: 0.29
[3]; first compound 0.253 µM
  relative viability: 0.308
[3]; first compound 2.53 µM
  relative viability: 0.313
[3]; first compound 8 µM
  relative viability: 0.319
[4]; first compound 0.08 µM
  relative viability: 0.36
[4]; first compound 0.253 µM
  relative viability: 0.384
[4]; first compound 2.53 µM
  relative viability: 0.39
[4]; first compound 8 µM
  relative viability: 0.268
[1]; first compound 0.08 µM
  relative viability: 0.901
[1]; first compound 0.253 µM
  relative viability: 0.837
[1]; first compound 0.8 µM
  relative viability: 0.676
[1]; first compound 2.53 µM
  relative viability: 0.923
[1]; first compound 8 µM
  relative viability: 0.98
[2]; first compound 0.08 µM
  relative viability: 0.914
[2]; first compound 0.253 µM
  relative viability: 0.778
[2]; first compound 0.8 µM
  relative viability: 0.882
[2]; first compound 2.53 µM
  relative viability: 0.882
[2]; first compound 8 µM
  relative viability: 0.705

## EMC-BAC-2
[3]; first compound 0.08 µM
  relative viability: 0.798
[3]; first compound 0.8 µM
  relative viability: 1.01
[3]; first compound 2.53 µM
  relative viability: 0.879
[3]; first compound 8 µM
  relative viability: 0.823
[4]; first compound 0.08 µM
  relative viability: 0.495
[4]; first compound 0.253 µM
  relative viability: 0.496
[4]; first compound 0.8 µM
  relative viability: 0.526
[4]; first compound 2.53 µM
  relative viability: 0.504
[4]; first compound 8 µM
  relative viability: 0.454
[1]; first compound 0.08 µM
  relative viability: 1.06
[1]; first compound 0.253 µM
  relative viability: 1.22
[1]; first compound 0.8 µM
  relative viability: 1.1
[1]; first compound 2.53 µM
  relative viability: 1.15
[1]; first compound 8 µM
  relative viability: 0.963
[2]; first compound 0.08 µM
  relative viability: 0.712
[2]; first compound 0.253 µM
  relative viability: 0.817
[2]; first compound 0.8 µM
  relative viability: 0.781
[2]; first compound 2.53 µM
  relative viability: 0.802
[2]; first compound 8 µM
  relative viability: 0.718

## EPLC-272H
[3]; first compound 0.08 µM
  relative viability: 0.308
[3]; first compound 0.253 µM
  relative viability: 0.271
[3]; first compound 0.8 µM
  relative viability: 0.296
[3]; first compound 8 µM
  relative viability: 0.277
[4]; first compound 0.08 µM
  relative viability: 0.309
[4]; first compound 0.253 µM
  relative viability: 0.315
[4]; first compound 0.8 µM
  relative viability: 0.372
[4]; first compound 8 µM
  relative viability: 0.332
[1]; first compound 0.08 µM
  relative viability: 1.02
[1]; first compound 0.8 µM
  relative viability: 0.871
[1]; first compound 8 µM
  relative viability: 0.979
[2]; first compound 0.08 µM
  relative viability: 1.08
[2]; first compound 0.8 µM
  relative viability: 1.05
[2]; first compound 8 µM
  relative viability: 1.19

## H3255
[3]; first compound 0.08 µM
  relative viability: 0.597
[3]; first compound 0.253 µM
  relative viability: 0.602
[3]; first compound 0.8 µM
  relative viability: 0.569
[3]; first compound 2.53 µM
  relative viability: 0.585
[3]; first compound 8 µM
  relative viability: 0.403
[4]; first compound 0.08 µM
  relative viability: 0.358
[4]; first compound 0.253 µM
  relative viability: 0.332
[4]; first compound 0.8 µM
  relative viability: 0.363
[4]; first compound 2.53 µM
  relative viability: 0.306
[4]; first compound 8 µM
  relative viability: 0.318
[1]; first compound 0.08 µM
  relative viability: 0.573
[1]; first compound 0.253 µM
  relative viability: 0.304
[1]; first compound 0.8 µM
  relative viability: 0.561
[1]; first compound 2.53 µM
  relative viability: 0.533
[1]; first compound 8 µM
  relative viability: 0.496
[2]; first compound 0.08 µM
  relative viability: 0.95
[2]; first compound 0.253 µM
  relative viability: 0.951
[2]; first compound 0.8 µM
  relative viability: 0.966
[2]; first compound 2.53 µM
  relative viability: 0.795
[2]; first compound 8 µM
  relative viability: 0.956

## HARA
[3]; first compound 0.08 µM
  relative viability: 0.561
[3]; first compound 0.253 µM
  relative viability: 0.742
[3]; first compound 0.8 µM
  relative viability: 0.734
[3]; first compound 2.53 µM
  relative viability: 0.447
[3]; first compound 8 µM
  relative viability: 0.629
[4]; first compound 0.08 µM
  relative viability: 0.238
[4]; first compound 0.253 µM
  relative viability: 0.237
[4]; first compound 0.8 µM
  relative viability: 0.196
[4]; first compound 2.53 µM
  relative viability: 0.222
[4]; first compound 8 µM
  relative viability: 0.324
[1]; first compound 0.08 µM
  relative viability: 1.11
[1]; first compound 0.253 µM
  relative viability: 1.16
[1]; first compound 0.8 µM
  relative viability: 1.12
[1]; first compound 2.53 µM
  relative viability: 1.12
[1]; first compound 8 µM
  relative viability: 1.08
[2]; first compound 0.08 µM
  relative viability: 0.919
[2]; first compound 0.253 µM
  relative viability: 0.877
[2]; first compound 0.8 µM
  relative viability: 0.735
[2]; first compound 2.53 µM
  relative viability: 0.712
[2]; first compound 8 µM
  relative viability: 0.789

## HCC-15
[3]; first compound 0.08 µM
  relative viability: 0.369
[3]; first compound 0.253 µM
  relative viability: 0.383
[3]; first compound 0.8 µM
  relative viability: 0.373
[3]; first compound 2.53 µM
  relative viability: 0.348
[3]; first compound 8 µM
  relative viability: 0.343
[4]; first compound 0.08 µM
  relative viability: 0.74
[4]; first compound 0.253 µM
  relative viability: 0.641
[4]; first compound 0.8 µM
  relative viability: 0.631
[4]; first compound 2.53 µM
  relative viability: 0.562
[4]; first compound 8 µM
  relative viability: 0.653
[1]; first compound 0.08 µM
  relative viability: 0.698
[1]; first compound 0.253 µM
  relative viability: 0.661
[1]; first compound 0.8 µM
  relative viability: 0.65
[1]; first compound 2.53 µM
  relative viability: 0.615
[1]; first compound 8 µM
  relative viability: 0.507
[2]; first compound 0.08 µM
  relative viability: 0.872
[2]; first compound 0.253 µM
  relative viability: 0.859
[2]; first compound 0.8 µM
  relative viability: 0.828
[2]; first compound 2.53 µM
  relative viability: 0.791
[2]; first compound 8 µM
  relative viability: 0.754

## HCC-44
[3]; first compound 0.08 µM
  relative viability: 0.939
[3]; first compound 0.253 µM
  relative viability: 0.847
[3]; first compound 0.8 µM
  relative viability: 0.701
[3]; first compound 2.53 µM
  relative viability: 0.687
[3]; first compound 8 µM
  relative viability: 0.695
[4]; first compound 0.08 µM
  relative viability: 0.912
[4]; first compound 0.253 µM
  relative viability: 0.779
[4]; first compound 0.8 µM
  relative viability: 0.851
[4]; first compound 2.53 µM
  relative viability: 0.874
[4]; first compound 8 µM
  relative viability: 0.805
[1]; first compound 0.08 µM
  relative viability: 0.759
[1]; first compound 0.253 µM
  relative viability: 0.728
[1]; first compound 0.8 µM
  relative viability: 0.709
[1]; first compound 2.53 µM
  relative viability: 0.749
[1]; first compound 8 µM
  relative viability: 0.813
[2]; first compound 0.08 µM
  relative viability: 0.59
[2]; first compound 0.253 µM
  relative viability: 0.497
[2]; first compound 0.8 µM
  relative viability: 0.486
[2]; first compound 2.53 µM
  relative viability: 0.539
[2]; first compound 8 µM
  relative viability: 0.662

## HCC-78
[3]; first compound 0.08 µM
  relative viability: 0.505
[3]; first compound 0.253 µM
  relative viability: 0.666
[3]; first compound 0.8 µM
  relative viability: 0.617
[3]; first compound 2.53 µM
  relative viability: 0.563
[3]; first compound 8 µM
  relative viability: 0.753
[4]; first compound 0.08 µM
  relative viability: 0.367
[4]; first compound 0.253 µM
  relative viability: 0.438
[4]; first compound 0.8 µM
  relative viability: 0.4
[4]; first compound 2.53 µM
  relative viability: 0.447
[4]; first compound 8 µM
  relative viability: 0.511
[1]; first compound 0.08 µM
  relative viability: 0.67
[1]; first compound 0.253 µM
  relative viability: 0.883
[1]; first compound 0.8 µM
  relative viability: 0.841
[1]; first compound 2.53 µM
  relative viability: 0.746
[1]; first compound 8 µM
  relative viability: 0.788
[2]; first compound 0.08 µM
  relative viability: 0.398
[2]; first compound 0.253 µM
  relative viability: 0.506
[2]; first compound 0.8 µM
  relative viability: 0.542
[2]; first compound 2.53 µM
  relative viability: 0.423
[2]; first compound 8 µM
  relative viability: 0.63
